A short description of data set [1]: Single-dose pharmacokinetic study, plasma and heart concentration by LC/MS/MS. It is filed as in vivo, CD-1 mice. To be noted: for Tmax: female, CD-1, mouse, plasma and heart. The protocol:
For single-dose pharmacokinetic studies, 7-9 week old female CD-1 mice were obtained from Charles River Laboratories, Inc. by Covance Laboratories Inc., Greenfield, Ind., USA. For subcutaneous injection, GsMTx4-D was dissolved at a concentration of 7.5 mg/ml in phosphate buffered saline pH 7.4 and injected subcutaneously into the back of mice at a net dose of 50 mg/kg. For intravenous (IV) administration into the tail vein, 1.5 mg/ml GsMTx4-D was used to achieve a dose of 5 mg/kg. Animals were sacrificed at 5, 15, 30, 60, 120, 480, 960 and 1920 min after injection, and blood and heart tissue samples were harvested. Animals were checked for death or morbidity during the whole trial. At the conclusion of each trial period, mice were euthanized by CO2 inhalation for 10 min. Blood samples were treated with sodium heparin and centrifuged to obtain plasma. There were cohorts of 3 mice per time point, and tissue samples from the 3 animals were combined from each time point to create average samples. Samples were sent to Custom Biologics, Mississauga, ON, Canada to measure the amount of GsMTx4 by liquid chromatography tandem mass spectrometry (LC/MS/MS) in the tissue samples. A reference standard was included in each sample consisting of a functional mutant of GsMTx4-D (F34A). All procedures in this protocol are in compliance with the U.S. Department of Agriculture's (USDA) Animal Welfare Act (9 CFR Parts 1, 2, and 3); the Guide for the Care and Use of Laboratory Animals: Eighth Edition, (Institute for Laboratory Animal Research, The National Academies Press, Washington, D.C., 2010); and the National Institutes of Health, Office of Laboratory Animal Welfare. Whenever possible, procedures in this study were designed to avoid or minimize discomfort, distress, and pain to animals. For ischemic reperfusion (I/R) testing, we used male C57B1/6J mice (4-6 months of age) obtained from Jackson Laboratories (Bar Harbor, […].). All animal protocols in this study were approved by the Institutional Animal Care and Use Committee of the University at Buffalo-State University of New York.
To provide a frame of reference for concentration and timing, we compared IV (fast absorption) to subcutaneous (slow absorption) administration and determined the distribution of the peptide in the heart and plasma over 24 hrs using LC/MS/MS (FIG. 1). Mice were sacrificed at different times after injection and the plasma (FIG. 1A) and heart (FIG. 1B) concentrations sampled. […] The samples from the 3 mouse cohorts at each time point were mixed and averaged. […] IV injection of 5 mg/kg GsMTx4-D produced an early spike in plasma concentration ([…] at 5 min) that decayed within 30 min. […] We used 1-5 μM ([…] is 1 μM) as our target concentration for treatment. IV injection of 5 mg/kg GsMTx4-D produced plasma concentrations within 5 minutes that were substantially above the target concentration while whole heart concentrations were somewhat lower than this range. Other ranges may be used for treatment, such as about 1.5-4.5 μM, about 2-4 μM, about 2.5-3.5 μM, about 1-4 μM, about 1-3 μM and about 1-2 μM. The whole heart concentration was lower than the target range within 5 minutes of IV injection, but the net plasma concentrations were acceptable.
Based on the slower distribution by subcutaneous administration, we injected 10 times the concentration of GsMTx4-D as that used in IV injection. The concentrations increased more slowly in both plasma and heart, peaking in ˜2 hrs, although we could reliably detect it in both tissues within 5 minutes. […] Without being bound by any theory, we believe that this is likely due to deeper infiltration into the tissue, and possibly higher affinity associations.

The subject of data set [2] is ischemic reperfusion injury in mouse heart. Briefly: In vivo pressure-volume relationships after I/R (left ventricular catheterization). Further details: species or system C57B1/6J mice. To be noted: 50 mg/kg IP pretreatment, 24 h reperfusion. The procedure: In order to determine hemodynamic differences, we measured the pressure-volume (P-V) relationships in real time in 3 groups of mice, including a sham group that was exposed to the open heart operation but not FR, and the two I/R (20min ischemia/24h reperfusion) induced groups pretreated with either vehicle or GsMTx4-D. To measure the P-V relationships, mice were anesthetized with 4% isoflurane and 100% O2, quickly intubated and ventilated with a respirator. […] The rib cage was slightly retracted and the diaphragm was gently cut away to attain an apical view of the myocardium. A 27-gauge needle was inserted into the apex of the LV free wall to create a guide-hole. A 1.2-French microtransducer pressure-volume impedance catheter (Scisense, London, ON, CA) was then inserted into the lumen of LV to assess real-time LV function. Hemodynamic parameters such as heart rate, cardiac output, and ejection fraction were measured and calculated with the iWorx software (Dover, N.H.). Each group included 5 (sham and GsMTx4-D) to 6 (vehicle) independent experiments.
To examine the effects of GsMTx4-D on hemodynamics, we compared the P-V relationships between the GsMTx4-D (50 mg/kg) and vehicle (saline 50 μL) in pretreated mice. After 20 min of ischemia followed by 24 h reperfusion, the left ventricle was catheterized to acquire real time P-V relationships (FIG. 3). […] In addition, GsMTx4-D produced improvements in both end systolic and diastolic volumes (FIG. 3 H and I) that led to a significant improvement in ejection fraction (61.7±3.4%, P<0.05) (FIG.3 G). Clearly, GsMTx4-D improves heart function after FR.

[3] abbreviates: subcutaneous injection 50 mg/kg.

Structures are written as SMILES. Where two headings read alike, the source gives them in different places. Where a SMILES comes first, the peptide text is derived from it. Bridges are numbered along the chain shown (N, C = ends). [ ]: non-standard residue; d: D form.

With `CC(C)C[C@H]1NC(=O)[C@H](NC(=O)CN)CSSC[C@H]2NC(=O)[C@H]3CSSC[C@H](C(=O)N[C@H](CC(N)=O)C(=O)N[C@H](Cc4ccccc4)C(=O)N[C@H](CO)C(=O)N[C@H](Cc4ccccc4)C(N)=O)NC(=O)[C@@H](CC(C)C)NC(=O)[C@@H](CCCCN)NC(=O)[C@@H](Cc4ccccc4)NC(=O)[C@@H](CC(C)C)NC(=O)[C@@H](CCCCN)NC(=O)[C@@H](CO)NC(=O)[C@@H](CSSC[C@@H](NC(=O)[C@@H](CCCCN)NC(=O)[C@@H](Cc4c[nH]c5ccccc45)NC(=O)[C@@H](Cc4c[nH]c5ccccc45)NC(=O)[C@@H](Cc4ccccc4)NC(=O)[C@@H](CCC(=O)O)NC1=O)C(=O)N[C@H](CC(N)=O)C(=O)N1CCC[C@@H]1C(=O)N[C@H](CC(N)=O)C(=O)N[C@H](CC(=O)O)C(=O)N[C@H](CC(=O)O)C(=O)N[C@H](CCCCN)C(=O)N3)NC(=O)[C@@H](CCCCN)NC(=O)[C@@H](CC(C)C)NC(=O)[C@@H](CCCCN)NC(=O)[C@H]1CCCN1C(=O)[C@@H](CCCNC(=N)N)NC2=O` [GsMTx4-D] (H-G[dC][dL][dE][dF][dW][dW][dK][dC][dN][dP][dN][dD][dD][dK][dC][dC][dR][dP][dK][dL][dK][dC][dS][dK][dL][dF][dK][dL][dC][dN][dF][dS][dF]-NH2; disulfide 2-17, 9-23, 16-30 (inferred); N-terminus and C-terminus assumed), in data set [1] (IV 5 mg/kg or subcutaneous 50 mg/kg), the “death or abnormal behavior during PK study” value is on record as “No mice died during the study, nor did any show abnormal behavior”. In addition, in data set [1] (IV injection of 5 mg/kg), the “time within which plasma concentration spike decayed” value is given as no more than 30 min. The Tmax in data set [1] (5 mg/kg, after IV injection, read-out: time of concentration spike in plasma and heart) is less than 0.0833 h. Moreover, in data set [1] (sc, subcutaneous injection 50 mg/kg, read-out: time of peak concentration in plasma and heart), the Tmax is roughly 2 h. In data set [1] (mouse, in vivo, D form), this compound yielded a half-life greater than 24 h. Further, in data set [1] (single 50 mg/kg subcutaneous injection, target range 1-5 μM), the “heart concentration twenty four hours after injection” value is listed as “near the target range”. Further, in data set [1] (setting [3]), the “plasma concentration by 24 hrs” value was “nearly undetectable”; the “time of peak concentration in plasma and heart” value was roughly 2 h. In addition, the stroke volume in data set [2] (vehicle 18.9±2.3, sham 26.7±1.9) stood at 26.2 ± 1.9 µL. Besides, the ejection fraction in data set [2] (vehicle 44.4±4.9, sham 75.5±6.4) stood at 61.7±3.4%. Also, in data set [2] (vehicle 243.9±6.9, sham 304.0±23.6), the heart rate was 298.7±14.3 bpm. Moreover, in data set [2] (vehicle 4636±602, sham 8039±690), the cardiac output stood at 77580 ± 321 µL/min. The “end systolic and diastolic volumes” value in data set [2] (vs vehicle) is listed as “improvements”.

Values taken from patent publication US20170072012A1, “USE OF GSMTX4 TO REDUCE ISCHEMIA REPERFUSION INJURY” (priority 2014, published 2017).
